According to patent US9000025B2, “Autotaxin inhibitors and uses thereof” (Amira Pharmaceuticals, Inc., priority 2010, dated 2015):

Biological target: T1, autotaxin (ATX) (Homo sapiens, UniProt Q13822)
T1 construct: conditioned medium from the human melanoma cell line, MDA-MB-4355, which endogenously expresses autotaxin; host or cells: MDA-MB-435S human melanoma cells; serum-free conditioned medium, concentrated 20-fold
Assay: Native Autotaxin Choline Release Assay
Type: biochemical
Conditions: autotaxin in conditioned medium from human melanoma cell line; choline released from LPC; read-out: MDA-MB-435S Assay IC50
Description: ATX activity is determined by measuring the amount of choline realeased from the substrate, lyosphophatidylcholine (LPC). […] After reaching confluency, the cells are washed twice with phosphate-buffered saline (PBS) then cultured for 48 hours in phenol-red free, serum-free DMEM containing sodium pyruvate. […] 100 μl of a color mix which contains 4.5 mM 4-aminoantipyrine, 2.7 mM N-ethyl-N-(2-hydroxy-3-sulfopropyl)-m-toluidine, 21 units/ml horseradish peroxidase and 3 units/ml choline oxidase in 50 mM Tris, pH 8, 4.5 mM MgCl2 is added and the incubation continued at 37° C. for 10 minutes before reading the absorbance at 555 nm. The concentration of released choline in the sample is determined from a choline standard curve and is equal to the concentration of LPA produced.

IC50	Compound
> 1000 nM	Cc1[nH]c2ccccc2c1Sc1cccc(CC(=O)O)c1 [Compound 1-1, [3-(2-Methyl-1H-indol-3-ylsulfanyl)-phenyl]-acetic acid]
> 1000 nM	Cc1[nH]c2cc(F)ccc2c1Sc1cccc(CC(=O)O)c1 [Compound 1-2, [3-(6-Fluoro-2-methyl-1H-indol-3-ylsulfanyl)-phenyl]-acetic acid]
> 1000 nM	COc1ccc2c(Sc3cccc(CC(=O)O)c3)c(C)[nH]c2c1 [Compound 1-3, [3-(6-Methoxy-2-methyl-1H-indol-3-ylsulfanyl)-phenyl]-acetic acid]
> 1000 nM	Cc1c(Sc2cccc(CC(=O)O)c2)c2ccccc2n1C [Compound 1-4, [3-(1,2-Dimethyl-1H-indol-3-ylsulfanyl)-phenyl]-acetic acid]
> 1000 nM	Cc1c(Sc2cccc(CC(=O)O)c2)c2ccc(Cl)cc2n1C [Compound 1-5, [3-(6-Chloro-1,2-dimethyl-1H-indol-3-ylsulfanyl)-phenyl]-acetic acid]
> 1000 nM	Cc1c(Sc2cccc(C(=O)O)c2)c2ccc(Cl)cc2n1C [Compound 1-6, 3-(6-Chloro-1,2-dimethyl-1H-indol-3-ylsulfanyl)-benzoic acid]
> 1000 nM	Cc1c(Sc2cccc(CC(=O)O)c2)c2ccc(Cl)cc2n1CC(C)C [Compound 1-7, [3-(6-Chloro-1-isobutyl-2-methyl-1H-indol-3-ylsulfanyl)-phenyl]-acetic acid]
300 to 1000 nM	COCCn1c(C)c(Sc2cccc(CC(=O)O)c2)c2ccc(Cl)cc21 [Compound 1-8, {3-[6-Chloro-1-(2-methoxy-ethyl)-2-methyl-1H-indol-3-ylsulfanyl]-phenyl}-acetic acid]
> 1000 nM	Cc1c(Sc2cccc(CC(=O)O)c2)c2ccccc2n1Cc1ccccc1 [Compound 1-9, [3-(1-Benzyl-2-methyl-1H-indol-3-ylsulfanyl)-phenyl]-acetic acid]
300 to 1000 nM	Cc1c(Sc2cccc(C(=O)O)c2)c2ccc(Br)cc2n1Cc1ccccc1 [Compound 1-10, 3-(1-Benzyl-6-bromo-2-methyl-1H-indol-3-ylsulfanyl)-benzoic acid]
> 1000 nM	Cc1c(Sc2cccc(C(=O)O)c2)c2ccc(-c3ccccc3)cc2n1Cc1ccccc1 [Compound 1-11, 3-(1-Benzyl-2-methyl-6-phenyl-1H-indol-3-ylsulfanyl)-benzoic acid]
> 1000 nM	Cc1c(Sc2cccc(C(=O)O)c2)c2ccc(-c3cccnc3)cc2n1Cc1ccccc1 [Compound 1-12, 3-(1-Benzyl-2-methyl-6-pyridin-3-yl-1H-indol-3-ylsulfanyl)-benzoic acid]
> 1000 nM	Cc1c(Sc2cccc(C(=O)O)c2)c2ccc(Cc3ccccc3)cc2n1Cc1ccccc1 [Compound 1-13, 3-(1,6-Dibenzyl-2-methyl-1H-indol-3-ylsulfanyl)-benzoic acid]
> 1000 nM	Cc1c(Sc2cccc(CC(=O)O)c2)c2ccc(Cl)cc2n1Cc1ccccc1 [Compound 1-14, [3-(1-Benzyl-6-chloro-2-methyl-1H-indol-3-ylsulfanyl)-phenyl]-acetic acid]
300 to 1000 nM	Cc1c(Sc2cccc(C(=O)O)c2)c2ccc(Cl)cc2n1Cc1ccccc1 [Compound 1-15, 3-(1-Benzyl-6-chloro-2-methyl-1H-indol-3-ylsulfanyl)-benzoic acid]
> 1000 nM	Cc1c(Oc2cccc(CC(=O)O)c2)c2ccc(Cl)cc2n1Cc1ccccc1 [Compound 1-16, [3-(1-Benzyl-6-chloro-2-methyl-1H-indol-3-yloxy)-phenyl]-acetic acid]

IC50	Compound
> 1000 nM	Cc1c(Sc2cccc(CCC(=O)O)c2)c2ccc(Cl)cc2n1Cc1ccccc1 [Compound 1-17, 3-[3-(1-Benzyl-6-chloro-2-methyl-1H-indol-3-ylsulfanyl)-phenyl]-propionic acid]
> 1000 nM	Cc1c(Sc2cccc(C(=O)O)c2)c2ccc(Cl)cc2n1Cc1ccc(F)cc1 [Compound 1-18, 3-[6-Chloro-1-(4-fluoro-benzyl)-2-methyl-1H-indol-3-ylsulfanyl]-benzoic acid]
> 1000 nM	Cc1c(Sc2cccc(C(=O)O)c2)c2ccc(Cl)cc2n1C(C)c1ccccc1 (centres unmarked) [Compound 1-19, 3-[6-Chloro-2-methyl-1-(1-phenyl-ethyl)-1H-indol-3-ylsulfanyl]-benzoic acid]
> 1000 nM	Cc1c(Sc2cccc(C(=O)O)c2)c2ccc(Cl)cc2n1Cc1ccc2ccccc2c1 [Compound 1-20, 3-(6-Chloro-2-methyl-1-naphthalen-2-ylmethyl-1H-indol-3-ylsulfanyl)-benzoic acid]
< 300 nM	Cc1c(Sc2cccc(C(=O)O)c2)c2ccc(Cl)cc2n1Cc1cccnc1 [Compound 1-21, 3-(6-Chloro-2-methyl-1-pyridin-3-ylmethyl-1H-indol-3-ylsulfanyl)-benzoic acid]
> 1000 nM	Cc1c(Sc2cccc(C(=O)O)c2)c2ccc(Cl)cc2n1Cc1ccc(C(F)(F)F)nc1 [Compound 1-22, 3-[6-Chloro-2-methyl-1-(6-trifluoromethyl-pyridin-3-ylmethyl)-1H-indol-3-ylsulfanyl]-benzoic acid]
< 300 nM	Cc1c(Sc2cccc(C(=O)O)c2)c2ccc(Cl)cc2n1Cc1ccncc1 [Compound 1-23, 3-(6-Chloro-2-methyl-1-pyridin-4-ylmethyl-1H-indol-3-ylsulfanyl)-benzoic acid]
300 to 1000 nM	Cc1c(Sc2cccc(C(=O)O)c2)c2ccc(Cl)cc2n1Cc1ccccn1 [Compound 1-24, 3-(6-Chloro-2-methyl-1-pyridin-2-ylmethyl-1H-indol-3-ylsulfanyl)-benzoic acid]
< 300 nM	COc1c(C)cnc(Cn2c(C)c(Sc3cccc(C(=O)O)c3)c3ccc(Cl)cc32)c1C [Compound 1-25, 3-[6-Chloro-1-(4-methoxy-3,5-dimethyl-pyridin-2-ylmethyl)-2-methyl-1H-indol-3-ylsulfanyl]-benzoic acid]
300 to 1000 nM	Cc1c(Sc2cccc(C(=O)O)c2)c2ccc(Cl)cc2n1-c1ccc(-c2ccccc2)cc1 [Compound 1-27, 3-(1-Biphenyl-4-yl-6-chloro-2-methyl-1H-indol-3-ylsulfanyl)-benzoic acid]
300 to 1000 nM	Cc1c(Sc2cccc(C(=O)O)c2)c2ccc(Cl)cc2n1-c1cccc(-c2ccccc2)c1 [Compound 1-28, 3-(1-Biphenyl-3-yl-6-chloro-2-methyl-1H-indol-3-ylsulfanyl)-benzoic acid]
< 300 nM	Cc1c(Sc2cccc(C(=O)O)c2)c2ccc(Cl)cc2n1-c1cccc(Cl)c1 [Compound 1-29, 3-[6-Chloro-1-(3-chloro-phenyl)-2-methyl-1H-indol-3-ylsulfanyl]-benzoic acid]
< 300 nM	Cc1c(Sc2cccc(C(=O)O)c2)c2ccc(Cl)cc2n1-c1cccnc1 [Compound 1-30, 3-(6-Chloro-2-methyl-1-pyridin-3-yl-1H-indol-3-ylsulfanyl)-benzoic acid]
300 to 1000 nM	Cc1c(Sc2cccc(C(=O)O)c2)c2ccc(Cl)cc2n1-c1ccccn1 [Compound 1-31, 3-(6-Chloro-2-methyl-1-pyridin-2-yl-1H-indol-3-ylsulfanyl)-benzoic acid]
300 to 1000 nM	Cc1c(Sc2cccc(C(=O)O)c2)c2ccc(Cl)cc2n1-c1ccc(C(F)(F)F)nc1 [Compound 1-32, 3-[6-Chloro-2-methyl-1-(6-trifluoromethyl-pyridin-3-yl)-1H-indol-3-ylsulfanyl]-benzoic acid]
< 300 nM	COc1ccc(-n2c(C)c(Sc3cccc(C(=O)O)c3)c3ccc(Cl)cc32)cn1 [Compound 1-33, 3-[6-Chloro-1-(6-methoxy-pyridin-3-yl)-2-methyl-1H-indol-3-ylsulfanyl]-benzoic acid]
